Experiments:
[1] = test system: Human immunodeficiency virus 2; experiment: Antiviral activity against HIV2 ROD infected in human MT4 cells assessed as protection against virus-induced cytopathicity after 5 days by MTT assay; format: functional, organism-based, ISOLATE ROD
[2] = Cytotoxicity against mock-infected human MT4 cells assessed as cell viability after 5 days by MTT assay; format: cell-based
[3] = test system: Human immunodeficiency virus 1; experiment: Antiviral activity against HIV1 RES056 harboring reverse transcriptase K103N/Y181C double mutant infected in human MT4 cells assessed as protection against virus-induced cytopathicity after 5 days by MTT assay; format: functional, organism-based
[4] = test system: Human immunodeficiency virus 1; experiment: Antiviral activity against wild type HIV1 3B infected in human MT4 cells assessed as protection against virus-induced cytopathicity after 5 days by MTT assay; format: functional, organism-based; details: Human immunodeficiency virus 1, 3B, MT4, 120 h
[5] = Selectivity index, ratio of CC50 for mock-infected human MT4 cells to EC50 for wild type HIV1 3B
[6] = test system: Human immunodeficiency virus 1; experiment: Antiviral activity against HIV1 harboring reverse transcriptase L100I/K103N double mutant infected in human MT4 cells assessed as protection against virus-induced cytopathicity after 5 days by MTT assay; format: functional, organism-based; details: Human immunodeficiency virus 1, MT4, 120 h
[7] = test system: Human immunodeficiency virus 1; experiment: Antiviral activity against wild type HIV1 LAI infected in human MT4 cells assessed as protection against virus-induced cytopathicity after 5 days by MTT assay; format: functional, organism-based; details: Human immunodeficiency virus 1, LAI, MT4, 120 h
[8] = test system: Human immunodeficiency virus 1; experiment: Antiviral activity against HIV1 harboring reverse transcriptase K103N/Y181C double mutant infected in human MT4 cells assessed as protection against virus-induced cytopathicity after 5 days by MTT assay; format: functional, organism-based; details: Human immunodeficiency virus 1, MT4, 120 h
[9] = biological target: Human immunodeficiency virus type 1 reverse transcriptase (Human immunodeficiency virus 1, UniProt Q72547); experiment: Inhibition of HIV 1 reverse transcriptase assessed as incorporation of biotin-dUTP into poly rA.dT by ELISA

For Cc1cc(Br)c(Oc2cc(Nc3ccc(C#N)cc3)n[nH]c2=O)c(Br)c1, the EC50 ([1]; mt4) was “Not Active”, the CC50 at 120 h [2] was 154 µM and the EC50 ([3]; mt4) was “Not Active”. It also gave an EC50 [4] of 210 nM and a selectivity ratio ([5]; mock-infected MT4 cells) of 733.
In the case of Cc1cc(Br)cc(C)c1Oc1cc(Nc2ccc(C#N)cc2)n[nH]c1=O, the EC50 ([1]; mt4) is reported as “Not Active”, the CC50 at 120 h [2] is reported as 19.5 µM and the EC50 ([3]; mt4) is reported as “Not Active”. It also gave an EC50 [4] of 1190 nM and a selectivity ratio ([5]; mock-infected MT4 cells) of 16.
For N#Cc1ccc(Nc2cc(Oc3c(Br)cc(Br)cc3Br)c(Cl)nn2)cc1, the EC50 ([1]; mt4) was “Not Active”, the CC50 at 120 h [2] was 22.3 µM and the EC50 ([3]; mt4) was “Not Active”. For the same compound, the EC50 [4] was 180 nM and the selectivity ratio ([5]; mock-infected MT4 cells) was 124.
For Cc1cccc(C)c1Oc1cc(Nc2ccc(C#N)cc2)nnc1Cl, the EC50 ([1]; mt4) was “Not Active”, the CC50 at 120 h [2] was 290 µM and the EC50 ([3]; mt4) was “Not Active”. For the same compound, the EC50 [4] was 540 nM and the selectivity ratio ([5]; mock-infected MT4 cells) was 537.
For COc1cccc(OC)c1Oc1cc(Nc2ccc(C#N)cc2)nnc1Cl, the EC50 ([1]; mt4) was “Not Active”, the CC50 at 120 h [2] was 2.9 µM and the EC50 ([3]; mt4) was “Not Active”. It also gave an EC50 [4] greater than 2900 nM and a selectivity ratio ([5]; mock-infected MT4 cells) of less than 1.
With Cc1cc(C)c(Oc2cc(Nc3cccc(Cl)c3)n[nH]c2=O)c(C)c1 the EC50 ([1]; mt4) was “Not Active”, the CC50 at 120 h [2] was 119 µM and the EC50 ([3]; mt4) was “Not Active”. It also gave an EC50 [4] of 14400 nM and a selectivity ratio ([5]; mock-infected MT4 cells) of 8.
In the case of COc1ccc(Nc2cc(Oc3c(C)cc(C)cc3C)c(=O)[nH]n2)cc1, the EC50 ([1]; mt4) is reported as “Not Active”, the CC50 at 120 h [2] is reported as 5.88 µM and the EC50 ([3]; mt4) is reported as “Not Active”. For the same compound, the EC50 [4] was 1590 nM and the selectivity ratio ([5]; mock-infected MT4 cells) was 4.
With Cc1cc(Br)cc(C)c1Oc1cc(Nc2ccc(C#N)cc2)nnc1Cl the EC50 ([1]; mt4) was “Not Active”, the CC50 at 120 h [2] was 84.1 µM and the EC50 ([3]; mt4) was “Not Active”. The EC50 [4] was 400 nM and the selectivity ratio ([5]; mock-infected MT4 cells) was 210.
With Cc1cc(C)c(Oc2cc(Nc3ccc([N+](=O)[O-])cc3)nnc2Cl)c(C)c1 the EC50 ([1]; mt4) was “Not Active”, the CC50 at 120 h [2] was 0.94 µM and the EC50 ([3]; mt4) was “Not Active”. The EC50 [4] was greater than 940 nM and the selectivity ratio ([5]; mock-infected MT4 cells) was less than 1.
For Cc1cc(C#N)cc(C)c1Oc1nc(Nc2ccc(C#N)cc2)nc(N)c1Br [ETRAVIRINE], the EC50 ([1]; mt4) was “Not Active” and the CC50 at 120 h [2] was greater than 4.6 µM.
Compound O=C1Nc2ccc(Cl)cc2[C@@](C#CC2CC2)(C(F)(F)F)O1 [EFAVIRENZ] has an EC50 ([1]; Human immunodeficiency virus 2, ISOLATE ROD, MT4, 120 h, read-out: EC50) of 20 nM, a CC50 at 120 h [2] greater than 2 µM and an EC50 ([3]; Human immunodeficiency virus 1, RES056, MT4, 120 h, read-out: EC50) of 590 nM. It also gave an EC50 [4] of 7 nM and a selectivity ratio ([5]; mt4) greater than 286.
With CC(C)Nc1cccnc1N1CCN(C(=O)c2cc3cc(NS(C)(=O)=O)ccc3[nH]2)CC1 [DELAVIRDINE] the EC50 ([1]; mt4) was “Not Active”, the CC50 at 120 h [2] was greater than 43.4 µM and the EC50 ([3]; mt4) was “Not Active”. For the same compound, the EC50 [4] was 42 nM and the selectivity ratio ([5]; mock-infected MT4 cells) was greater than 1030.
With Cc1cc(C)c(Oc2cc(Nc3ccc(C#N)cc3)nn(C)c2=O)c(C)c1 the EC50 ([1]; mt4) was “Not Active”, the CC50 at 120 h [2] was 143 µM and the EC50 ([3]; mt4) was “Not Active”. It also gave an EC50 [4] of 1160 nM and a selectivity ratio ([5]; mock-infected MT4 cells) of 123.
For N#Cc1ccc(Nc2cc(Oc3c(Cl)cc(Cl)cc3Cl)c(=O)[nH]n2)cc1, the EC50 ([1]; mt4) was “Not Active”, the CC50 at 120 h [2] was 35 µM and the EC50 ([3]; mt4) was “Not Active”. It also gave an EC50 [4] of no less than 9200 nM.
With Cc1cc(C)c(Oc2cc(Nc3ccc(C#N)cc3)nnc2Cl)c(C)c1 the EC50 ([1]; mt4) was “Not Active”, the CC50 at 120 h [2] was 36.3 µM and the EC50 ([3]; mt4) was “Not Active”. It also gave an EC50 [4] of 79 nM and a selectivity ratio ([5]; mock-infected MT4 cells) of 461.
For N#Cc1ccc(Nc2cc(Oc3c(Cl)cccc3Cl)c(Cl)nn2)cc1, the EC50 ([1]; mt4) was “Not Active”, the CC50 at 120 h [2] was 93.1 µM and the EC50 ([3]; mt4) was “Not Active”. It also gave an EC50 [4] of 220 nM and a selectivity ratio ([5]; mock-infected MT4 cells) of 423.
In the case of N#Cc1ccc(Nc2cc(Oc3c(Br)cc(Br)cc3Br)c(=O)[nH]n2)cc1, the EC50 ([1]; mt4) is reported as “Not Active”, the CC50 at 120 h [2] is reported as 139 µM and the EC50 ([3]; mt4) is reported as “Not Active”. For the same compound, the EC50 [4] was 630 nM and the selectivity ratio ([5]; mock-infected MT4 cells) was 221.
In the case of Cc1cc(C)c(Oc2cc(N(C)c3ccc(C#N)cc3)nn(C)c2=O)c(C)c1, the EC50 ([1]; mt4) is reported as “Not Active”, the CC50 at 120 h [2] is reported as no less than 246 µM and the EC50 ([3]; mt4) is reported as “Not Active”. It also gave an EC50 [4] of 3360 nM and a selectivity ratio ([5]; mock-infected MT4 cells) of no less than 73.
With Cc1cc(C)c(Oc2cc(Nc3ccc([N+](=O)[O-])cc3)n[nH]c2=O)c(C)c1 the EC50 ([1]; mt4) was “Not Active”, the CC50 at 120 h [2] was 37.1 µM and the EC50 ([3]; mt4) was “Not Active”. For the same compound, the EC50 [4] was 5080 nM and the selectivity ratio ([5]; mock-infected MT4 cells) was 7.
For Cc1cc(C#N)cc(C)c1Oc1cc(Nc2ccc(C#N)cc2)nnc1Cl, the EC50 ([1]; mt4) was “Not Active”, the CC50 at 120 h [2] was 53.2 µM and the EC50 ([3]; mt4) was “Not Active”. For the same compound, the EC50 [4] was 144 nM and the selectivity ratio ([5]; mock-infected MT4 cells) was 369.
With Cc1cc(C)c(Oc2cc(Nc3ccc(C#N)cc3)n[nH]c2=O)c(C)c1 the EC50 ([1]; mt4) was “Not Active”, the CC50 at 120 h [2] was 47 µM and the EC50 ([3]; mt4) was “Not Active”. For the same compound, the EC50 [4] was 260 nM and the selectivity ratio ([5]; mock-infected MT4 cells) was 180.
Compound Cc1cc(C#N)cc(C)c1Oc1nc(Nc2ccc(C#N)cc2)c(=O)n(C)c1C has an EC50 [6] of 158 nM, an EC50 [7] of 6 nM and an EC50 [8] of 61 nM.
For Cc1ccc(Nc2cc(Oc3c(C)cc(C)cc3C)c(Cl)nn2)cc1, the EC50 ([1]; mt4) was “Not Active”, the CC50 at 120 h [2] was 244 µM and the EC50 ([3]; mt4) was “Not Active”. It also gave an EC50 [4] of 201 nM and a selectivity ratio ([5]; mock-infected MT4 cells) of 1210.
In the case of N#Cc1ccc(Nc2cc(Oc3c(Cl)cc(Cl)cc3Cl)c(Cl)nn2)cc1, the EC50 ([1]; mt4) is reported as “Not Active”, the CC50 at 120 h [2] is reported as 18.6 µM and the EC50 ([3]; mt4) is reported as “Not Active”. The EC50 [4] was 155 nM and the selectivity ratio ([5]; mock-infected MT4 cells) was 120.
Cc1cc(C#N)cc(C)c1Oc1ccc(=O)n(Nc2ccc(C#N)cc2)n1 gave an EC50 [7] of 1750 nM.
For Cc1cc(C)c(Oc2cc(Nc3ccc(Cl)cc3)n[nH]c2=O)c(C)c1, the EC50 ([1]; mt4) was “Not Active”, the CC50 at 120 h [2] was 5.98 µM and the EC50 ([3]; mt4) was “Not Active”. For the same compound, the EC50 [4] was 780 nM and the selectivity ratio ([5]; mock-infected MT4 cells) was 8.
For Cc1ccc(Nc2cc(Oc3c(C)cc(C)cc3C)c(=O)[nH]n2)cc1, the EC50 ([1]; mt4) was “Not Active”, the CC50 at 120 h [2] was 185 µM and the EC50 ([3]; mt4) was “Not Active”. It also gave an EC50 [4] of 1550 nM and a selectivity ratio ([5]; mock-infected MT4 cells) of 119.
In the case of Cc1ccnc2c1NC(=O)c1cccnc1N2C1CC1 [NEVIRAPINE], the EC50 ([1]; mt4) is reported as “Not Active”, the CC50 at 120 h [2] is reported as greater than 14.9 µM and the EC50 ([3]; mt4) is reported as “Not Active”.
For Cc1cc(C#N)cc(C)c1Oc1cc(Nc2ccc(C#N)cc2)n[nH]c1=O, the EC50 ([1]; mt4) was “Not Active”, the CC50 at 120 h [2] was 272 µM and the EC50 ([3]; mt4) was “Not Active”. It also gave an EC50 [4] of 2830 nM and a selectivity ratio ([5]; mock-infected MT4 cells) of 96.
In the case of Cc1cc(Br)c(Oc2cc(Nc3ccc(C#N)cc3)nnc2Cl)c(Br)c1, the EC50 ([1]; mt4) is reported as “Not Active”, the CC50 at 120 h [2] is reported as 19.2 µM and the EC50 ([3]; mt4) is reported as “Not Active”. For the same compound, the EC50 [4] was 34 nM, the selectivity ratio ([5]; mock-infected MT4 cells) was 565 and the IC50 [9] was 3.18 µM.
With Cc1cc(C)c(Oc2cc(Nc3ccc(Cl)cc3)nnc2Cl)c(C)c1 the EC50 ([1]; mt4) was “Not Active”, the CC50 at 120 h [2] was 210 µM and the EC50 ([3]; mt4) was “Not Active”. The EC50 [4] was 139 nM and the selectivity ratio ([5]; mock-infected MT4 cells) was 1510.
For Cc1cccc(C)c1Oc1cc(Nc2ccc(C#N)cc2)n[nH]c1=O, the EC50 ([1]; mt4) was “Not Active”, the CC50 at 120 h [2] was 205 µM and the EC50 ([3]; mt4) was “Not Active”. It also gave an EC50 [4] of 1900 nM and a selectivity ratio ([5]; mock-infected MT4 cells) of 108.

Reference: ChEMBL document CHEMBL2346569, “Synthesis and biological evaluation of pyridazine derivatives as novel HIV-1 NNRTIs” (Bioorg Med Chem, 2013)
